# Reference: patent publication US20230167127A1, “COMPOUNDS AND THEIR USE IN THE TREATMENT OF BACTERIAL INFECTION” (Hoffmann-La Roche Inc., priority 2020, published 2023)
# System: Escherichia coli ATCC 25922
# Assay: 50% growth inhibitory concentration (IC50) determination, Iso-Sensitest broth dilution
# Type: cell-based
# Conditions: Escherichia coli, ATCC25922, 16 h, strain Escherichia coli ATCC 25922; 10-point broth dilution, optical density at 600 nm over 16 h; read-out: Escherichia coli growth inhibition IC50
# Protocol: 50% Growth Inhibitory Concentration (IC50) Determination
# The in vitro antimicrobial activity of the compounds was determined according to the following procedure:
# The assay used a 10-point Iso-Sensitest broth dilution method to measure quantitatively the in vitro
# ATCC 25922, Acinetobacter baumannii ATCC 17961, Klebsiella pneumoniae ATCC 43816 and Staphylococcus aureus ATCC 29213.
# Stock compounds in DMSO were serially twofold diluted (e.g. range from 50 to 0.097 μM final concentration) in 384 wells microtiter plates and inoculated with 50 μL of the bacterial suspension in Iso-
# ell of 50 μL/well. Microtiter plates were incubated at 35±2° C.
# Bacterial cell growth was determined with the measurement of optical density at λ=600 nm each 20 minutes over a time course of 16 h.
# Growth inhibition was calculated during the logarithmic growth of the bacterial cells with
# Table 1 provides the 50% growth inhibitory concentrations (IC50) in micromoles per liter of the compounds of present invention obtained against the strain Escherichia coli ATCC 25922.
row,Structure (SMILES),IC50
1,"N#Cc1cccc2c1CC(CNC[C@H](O)[C@@H]1CN(c3ccc4c(c3)NC(=O)CO4)C(=O)O1)C2 (stereo partly drawn) [Example 62, 2-[[[(2S)-2-hydroxy-2-[(5S)-2-oxo-3-(3-oxo-4H-1,4-benzoxazin-6-yl)-1,3-oxazolidin-5-yl]ethyl]amino]methyl]-2,3-dihydro-1H-indene-4-carbonitrile; formic acid]",208 nM
2,"CS(=O)(=O)CCOc1cc(F)c2c(c1)CC(CNCCC1CN(c3cnc4c(n3)NC(=O)CO4)C(=O)O1)C2 (stereo not drawn) [Example 353, 6-[5-[2-[[4-fluoro-6-(2-methylsulfonylethoxy)-2,3-dihydro-1H-inden-2-yl]methylamino]ethyl]-2-oxo-1,3-oxazolidin-3-yl]-4H-pyrazino[2,3-b][1,4]oxazin-3-one; formic acid]",170 nM
3,"CC(N)COc1ccc2c(c1C#N)CC(CNCCC1CN(c3ccc4c(n3)NC(=O)CO4)C(=O)O1)C2 (stereo not drawn) [Example 134, 5-(2-aminopropoxy)-2-[[2-[2-oxo-3-(3-oxo-4H-pyrido[3,2-b][1,4]oxazin-6-yl)-1,3-oxazolidin-5-yl]ethylamino]methyl]-2,3-dihydro-1H-indene-4-carbonitrile; formic acid]",114 nM
4,"O=C1COc2ncc(N3CC(CCNCC4Cc5cc(OCCn6cncn6)cc(F)c5C4)OC3=O)nc2N1 (stereo not drawn) [Example 296, 6-[5-[2-[[4-fluoro-6-[2-(l,2,4-triazol-1-yl)ethoxy]-2,3-dihydro-1H-inden-2-yl]methylamino]ethyl]-2-oxo-1,3-oxazolidin-3-yl]-4H-pyrazino[2,3-b][1,4]oxazin-3-one; formic acid]",381 nM
5,"Cc1ncnc2c1CC(CNCCC1CN(c3ccc4c(n3)NC(=O)CO4)C(=O)O1)C2 (stereo not drawn) [Example 421, 6-[5-[2-[(4-methyl-6,7-dihydro-5H-cyclopenta[d]pyrimidin-6-yl)methylamino]ethyl]-2-oxo-1,3-oxazolidin-3-yl]-4H-pyrido[3,2-b][1,4] oxazin-3-one]",618 nM
6,"N#Cc1cccc2c1C(O)C(CNCCC1CN(c3ccc4c(n3)NC(=O)CO4)C(=O)O1)C2 (racemic) [Example 151, rac-2,3-trans-3-hydroxy-2-[[2-[2-oxo-3-(3-oxo-4H-pyrido[3,2-b][1,4]oxazin-6-yl)-1,3-oxazolidin-5-yl]ethylamino]methyl]-2,3-dihydro-1H-indene-4-carbonitrile; formic acid]",140 nM
7,"N#Cc1cc(OCc2cn[nH]c2)cc2c1CC(CNCCC1CN(c3cnc4c(n3)NC(=O)CO4)C(=O)O1)C2 (stereo not drawn) [Example 405, 2-[[2-[2-oxo-3-(3-oxo-4H-pyrazino[2,3-b][1,4]oxazin-6-yl)-1,3-oxazolidin-5-yl]ethylamino]methyl]-6-(1H-pyrazol-4-ylmethoxy)-2,3-dihydro-1H-indene-4-carbonitrile; formic acid]",< 97.7 nM
8,"Cc1noc(COc2cc(C#N)c3c(c2)CC(CNCCC2CN(c4cnc5c(n4)NC(=O)CO5)C(=O)O2)C3)n1 (stereo not drawn) [Example 387, 6-[(3-methyl-1,2,4-oxadiazol-5-yl)methoxy]-2-[[2-[2-oxo-3-(3-oxo-4H-pyrazino[2,3-b][1,4]oxazin-6-yl)-1,3-oxazolidin-5-yl]ethylamino]methyl]-2,3-dihydro-1H-indene-4-carbonitrile]",< 97.7 nM
9,"Cc1ncc(C#N)c2c1CC(NCCCc1cn(-c3cnc4c(n3)NC(=O)CO4)c(=O)o1)C2 (single isomer, unassigned; enantiomer a) [Example 321, 1-Methyl-6-[3-[2-oxo-3-(3-oxo-4H-pyrazino[2,3-b][1,4]oxazin-6-yl)-1,3-oxazol-5-yl]propylamino]-6,7-dihydro-5H-cyclopenta[c]pyridine-4-carbonitrile, Enantiomer A]",< 97.7 nM
10,"N#Cc1cccc2c1CC(CN1CCC3(CC1)CN(c1cnc4c(n1)NC(=O)CO4)C(=O)O3)C2 (stereo not drawn) [Example 261, 2-[[2-Oxo-3-(3-oxo-4H-pyrazino[2,3-b][1,4]oxazin-6-yl)-1-oxa-3,8-diazaspiro[4.5]decan-8-yl]methyl]-2,3-dihydro-1H-indene-4-carbonitrile; formic acid]",< 97.7 nM

# Further lines, results first:
row,IC50,Structure (SMILES)
1,< 97.7 nM,"N#Cc1cccc2c1CC(CNCCC1CN(c3ccc4c(n3)NC(=O)CO4)C(=O)O1)C2 (stereo not drawn) [Example 5, 2-[[2-[2-oxo-3-(3-oxo-4H-pyrido[3,2-b][1,4]oxazin-6-yl)-1,3-oxazolidin-5-yl]ethylamino]methyl]-2,3-dihydro-1H-indene-4-carbonitrile]"
2,< 97.7 nM,"N#CCOc1cc(F)c2c(c1)CC(CNCCC1CN(c3ccc4c(n3)NC(=O)CO4)C(=O)O1)C2 (stereo not drawn) [Example 73, 2-[[7-fluoro-2-[[2-[2-oxo-3-(3-oxo-4H-pyrido[3,2-b][1,4]oxazin-6-yl)-1,3-oxazolidin-5-yl]ethylamino]methyl]-2,3-dihydro-1H-inden-5-yl]oxy]acetonitrile; formic acid]"
3,< 97.7 nM,"NC1c2cccc(Cl)c2CC1CNCCc1cn(-c2ccc3c(n2)NC(=O)CO3)c(=O)o1 (racemic) [Example 170, 6-[2-oxo-5-[2-[[rac-1,2-trans-1-amino-4-chloro-2,3-dihydro-1H-inden-2-yl]methylamino]ethyl]-1,3-oxazol-3-yl]-4H-pyrido[3,2-b][1,4]oxazin-3-one]"
4,< 97.7 nM,"N#Cc1cccc2c1CC(CNCCC1CN(c3ccc4c(n3)NC(=O)CS4)C(=O)O1)C2 (stereo not drawn) [Example 64, 2-[[2-[2-oxo-3-(3-oxo-4H-pyrido[3,2-b][1,4]thiazin-6-yl)-1,3-oxazolidin-5-yl]ethylamino]methyl]-2,3-dihydro-1H-indene-4-carbonitrile]"
5,< 97.7 nM,"O=C1COc2ncc(N3CC(CCNCC4Cc5ccnc(Cl)c5C4)OC3=O)nc2N1 (stereo not drawn) [Example 38, 6-[5-[2-[(1-chloro-6,7-dihydro-5H-cyclopenta[c]pyridin-6-yl)methylamino]ethyl]-2-oxo-1,3-oxazolidin-3-yl]-4H-pyrazino[2,3-b][1,4]oxazin-3-one]"
6,< 97.7 nM,"Cc1ncc(Cl)c2c1CC(CNCCC1CN(c3ccc4c(n3)NC(=O)CS4)C(=O)O1)C2N (racemic) [Example 264, 3-(3-Oxo-4H-pyrido[3,2-b][1,4]thiazin-6-yl)-5-[2-[[rac-5,6-trans-5-amino-4-chloro-1-methyl-6,7-dihydro-5H-cyclopenta[c]pyridin-6-yl]methylamino]ethyl]-1,3-oxazolidin-2-one]"
7,< 97.7 nM,"N#Cc1cc(OC2CNC2)cc2c1CC(CNCCC1CN(c3ccc4c(n3)NC(=O)CO4)C(=O)O1)C2 (stereo not drawn) [Example 190, 6-(azetidin-3-yloxy)-2-[[2-[2-oxo-3-(3-oxo-4H-pyrido[3,2-b][1,4]oxazin-6-yl)-1,3-oxazolidin-5-yl]ethylamino]methyl]-2,3-dihydro-1H-indene-4-carbonitrile; 2,2,2-trifluoroacetic acid]"
8,< 97.7 nM,"NC1c2cccc(Cl)c2CC1CN[C@H]1C[C@@]2(CN(c3ccc4c(n3)NC(=O)CO4)C(=O)O2)C1 (mixture of isomers) [Example 211, 2,4-trans-6-[6-oxo-2-[[rac-1,2-trans-1-amino-4-chloro-2,3-dihydro-1H-inden-2-yl]methylamino]-5-oxa-7-azaspiro[3.4]octan-7-yl]-4H-pyrido[3,2-b][1,4]oxazin-3-one]"
9,< 97.7 nM,"N#Cc1ncc(F)c2c1CC(CNCCC1CN(c3ccc4c(n3)NC(=O)CO4)C(=O)O1)C2 (stereo not drawn) [Example 37, 4-fluoro-6-[[2-[2-oxo-3-(3-oxo-4H-pyrido[3,2-b][1,4]oxazin-6-yl)-1,3-oxazolidin-5-yl]ethylamino]methyl]-6,7-dihydro-5H-cyclopenta[c]pyridine-1-carbonitrile; formic acid]"
10,< 97.7 nM,"Cc1ncc2c(c1F)CC(CNCC[C@H]1CN(c3cnc4c(n3)NC(=O)CO4)C(=O)O1)C2 (stereo partly drawn) [Example 338, 6-[(5S)-5-[2-[(4-fluoro-3-methyl-6,7-dihydro-5H-cyclopenta[c]pyridin-6-yl)methylamino]ethyl]-2-oxo-1,3-oxazolidin-3-yl]-4H-pyrazino[2,3-b][1,4]oxazin-3-one]"
11,< 97.7 nM,"N#Cc1c(OCC2(N)CC2)ncc2c1CC(CNCCC1CN(c3ccc4c(n3)NC(=O)CO4)C(=O)O1)C2 (stereo not drawn) [Example 198, 3-[(1-aminocycopropyl)methoxy]-6-[[2-[2-oxo-3-(3-oxo-4H-pyrido[3,2-b][1,4]oxazin-6-yl)-1,3-oxazolidin-5-yl]ethylamino]methyl]-6,7-dihydro-5H-cyclopenta[c]pyridine-4-carbonitrile]"
12,< 97.7 nM,"NC1c2cccc(Cl)c2CC1CNCCC1CN(c2ccc3c(n2)NC(=O)CO3)C(=O)O1 (racemic) [Example 226, 6-[2-Oxo-5-[2-[[rac-1,2-trans-1-amino-4-chloro-2,3-dihydro-1H-inden-2-yl]methylamino]ethyl]-1,3-oxazolidin-3-yl]-4H-pyrido[3,2-b][1,4]oxazin-3-one]"
13,< 97.7 nM,"CC(C)(N)COc1cc(F)c2c(c1F)CC(CN1CCC3(CC1)CN(c1cnc4c(n1)NC(=O)CO4)C(=O)O3)C2 (stereo not drawn) [Example 412, 6-[8-[[5-(2-amino-2-methylpropoxy)-4,7-difluoro-2,3-dihydro-1H-inden-2-yl]methyl]-2-oxo-1-oxa-3,8-diazaspiro[4.5]decan-3-yl]-4H-pyrazino[2,3-b][1,4]oxazin-3-one; formic acid]"

# Same assay, conditions: strain Escherichia coli ATCC 25922; 10-point broth dilution, optical density at 600 nm over 16 h; read-out: Escherichia coli growth inhibition IC50
row,Structure (SMILES),IC50
1,"NC(=O)COc1cc(F)c2c(c1)CC(CNCC[C@@H]1CN(c3cnc4c(n3)NC(=O)CO4)C(=O)O1)C2 (single isomer, unassigned; isomer b) [Example 382]",158 nM
